Experimental data as given in PubChem BioAssay (NCI).
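In this assay, cells in 96-well plates receive the compound at five concentrations for 48 hours. Endpoints are linearly interpolated between the surrounding concentrations. GI50: concentration for 50% inhibition of growth. Definition used: TGI = concentration required for complete inhibition of growth.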

Assays:
Assay in all cases: inhibition of tumour cell growth, NCI panel, 48 h
[1] = test system: PC-3 prostate
[2] = test system: SF-539 CNS
[3] = test system: MALME-3M melanoma
[4] = test system: SNB-19 CNS
[5] = test system: NCI-H460 lung
[6] = test system: CAKI-1 renal
[7] = test system: T-47D breast
[8] = test system: NCI-H226 lung
[9] = test system: COLO 205 colon
[10] = test system: SK-OV-3 ovarian
[11] = test system: HCT-15 colon
[12] = test system: MDA-MB-435
[13] = test system: MCF7 breast
[14] = test system: UACC-62 melanoma
[15] = test system: UO-31 renal
[16] = test system: HCT-116 colon
[17] = test system: DU-145 prostate
[18] = test system: SK-MEL-5 melanoma
[19] = test system: OVCAR-3 ovarian
[20] = test system: SF-295 CNS
[21] = test system: HT29 colon
[22] = test system: RXF 393 renal
[23] = test system: SR leukemia
[24] = test system: NCI-H23 lung
[25] = test system: HOP-62 NSCLC
[26] = test system: RPMI-8226 leukemia
[27] = test system: SNB-75 CNS
[28] = test system: UACC-257 melanoma
[29] = test system: CCRF-CEM leukemia
[30] = test system: MDA-MB-231 breast
[31] = test system: SW-620 colon
[32] = test system: SK-MEL-28 melanoma
[33] = test system: OVCAR-5 ovarian
[34] = test system: EKVX NSCLC
[35] = test system: HL-60(TB) leukemia
[36] = test system: BT-549 breast
[37] = test system: TK-10 renal
[38] = test system: M14 melanoma
[39] = test system: NCI/ADR-RES ovarian
[40] = test system: NCI-H522 lung
[41] = test system: SN12C renal
[42] = test system: SK-MEL-2 melanoma
[43] = test system: LOX IMVI melanoma
[44] = test system: ACHN renal
[45] = test system: KM12 colon
[46] = test system: HOP-92 NSCLC
[47] = test system: A549 NSCLC
[48] = test system: IGROV1 ovarian
[49] = test system: 786-0 renal
[50] = test system: K-562 leukemia
[51] = test system: MOLT-4 leukemia
[52] = test system: OVCAR-4 ovarian
[53] = test system: OVCAR-8 ovarian
[54] = test system: U251 CNS
[55] = test system: SF-268 CNS
[56] = test system: HCC-2998 colon
[57] = test system: HS 578T breast

O=C(OCC1OC(n2cc(C(F)(F)F)c(=O)[nH]c2=O)CC1OC(=O)c1ccc([N+](=O)[O-])cc1)c1ccc([N+](=O)[O-])cc1 (centres undefined)
GI50 [1]: 8.74 µM | TGI [1]: > 100 µM | GI50 [2]: 2.03 µM | TGI [2]: > 100 µM | GI50 [3]: 92.3 µM | TGI [3]: > 100 µM | GI50 [4]: > 100 µM | TGI [4]: > 100 µM | GI50 [5]: 3.43 µM | TGI [5]: > 100 µM | GI50 [6]: 3.29 µM | TGI [6]: > 100 µM | GI50 [7]: 7.88 µM | TGI [7]: > 100 µM | GI50 [8]: 9.42 µM | TGI [8]: > 100 µM | GI50 [9]: > 100 µM | TGI [9]: > 100 µM | GI50 [10]: 8.51 µM | TGI [10]: > 100 µM | GI50 [11]: 20.8 µM | TGI [11]: > 100 µM | GI50 [12]: 2.36 µM | TGI [12]: > 100 µM | GI50 [13]: 1.26 µM | TGI [13]: > 100 µM | GI50 [14]: 1.41 µM | TGI [14]: > 100 µM | GI50 [15]: 3.77 µM | TGI [15]: > 100 µM | GI50 [16]: 8.5 µM | TGI [16]: > 100 µM | GI50 [17]: 0.885 µM | TGI [17]: > 100 µM | GI50 [18]: 4.55 µM | TGI [18]: > 100 µM | GI50 [19]: 23.8 µM | TGI [19]: > 100 µM | GI50 [20]: 3.72 µM | TGI [20]: > 100 µM | GI50 [21]: > 100 µM | TGI [21]: > 100 µM | GI50 [22]: 4.54 µM | TGI [22]: > 100 µM | GI50 [23]: 11.3 µM | TGI [23]: > 100 µM | GI50 [24]: > 100 µM | TGI [24]: > 100 µM | GI50 [25]: 8.97 µM | TGI [25]: > 100 µM | GI50 [26]: 2.12 µM | TGI [26]: > 100 µM | GI50 [27]: 8.92 µM | TGI [27]: > 100 µM | GI50 [28]: 2.7 µM | TGI [28]: > 100 µM | GI50 [29]: 3.86 µM | TGI [29]: > 100 µM | GI50 [30]: > 100 µM | TGI [30]: > 100 µM | GI50 [31]: 6.2 µM | TGI [31]: > 100 µM | GI50 [32]: > 100 µM | TGI [32]: > 100 µM | GI50 [33]: 41.8 µM | TGI [33]: > 100 µM | GI50 [34]: > 100 µM | TGI [34]: > 100 µM | GI50 [35]: 7.37 µM | TGI [35]: > 100 µM | GI50 [36]: 7.42 µM | TGI [36]: > 100 µM | GI50 [37]: > 100 µM | TGI [37]: > 100 µM | GI50 [38]: 1.96 µM | TGI [38]: 7.82 µM | GI50 [39]: 16.7 µM | TGI [39]: > 100 µM | GI50 [40]: 5.65 µM | TGI [40]: > 100 µM | GI50 [41]: 4.28 µM | TGI [41]: > 100 µM | GI50 [42]: > 100 µM | TGI [42]: > 100 µM | GI50 [43]: 4.81 µM | TGI [43]: > 100 µM | GI50 [44]: 1.17 µM | TGI [44]: > 100 µM | GI50 [45]: > 100 µM | TGI [45]: > 100 µM | GI50 [46]: 8.55 µM | TGI [46]: > 100 µM | GI50 [47]: 4.95 µM | TGI [47]: > 100 µM | GI50 [48]: 25.4 µM | TGI [48]: > 100 µM | GI50 [49]: 3.11 µM | TGI [49]: 18.6 µM | GI50 [50]: 94 µM | TGI [50]: > 100 µM | GI50 [51]: 14.8 µM | TGI [51]: > 100 µM | GI50 [52]: 54.7 µM | TGI [52]: > 100 µM | GI50 [53]: 6.91 µM | TGI [53]: > 100 µM | GI50 [54]: 9.08 µM | TGI [54]: > 100 µM | GI50 [55]: 3.87 µM | TGI [55]: > 100 µM | GI50 [56]: 5.38 µM | TGI [56]: > 100 µM | GI50 [57]: > 100 µM | TGI [57]: > 100 µM
